Results taken from publication PMC8648660, “Multifunctional thiosemicarbazones targeting sigma receptors: in vitro and in vivo antitumor activities in pancreatic cancer models” (Cellular Oncology, 2021).
Where “and” joins values, the source holds several entries; their conditions need not be identical. Equal values may be shown once. Entries after “also recorded” stand apart in the source; their conditions may differ.

Key:
[1] = target: T1, sigma-2 receptors (Homo sapiens, UniProt Q5BJF2); test: Flow cytometry displacement of sigma-2 fluorescent ligand NO1 in human pancreatic cancer cells; assay type: binding
T1 construct: endogenous in cells; host or cells: MiaPaCa2, PANC-1, AsPC1 (whole cells)
Experimental: Flow cytometry studies to detect receptor densities and ligand binding affinities were carried out according to Abate et al. and Niso et al., for the sigma-1 and sigma-2 receptors, respectively. […] At the end of the incubation periods, the cells were washed twice with PBS, detached with […] Cell Dissociation Solution (Sigma Chemical Co.) for 10 min at 37 °C, centrifuged at 13,000 g for 5 min and resuspended in 500 µl PBS. Fluorescence was recorded using a Bio-Guava® easyCyte™ 5 Flow Cytometry System (Millipore, Billerica, MA, USA) equipped with a 530 nm band pass filter. For each analysis, 50,000 events were collected and analyzed using InCyte software (Millipore).

[2] = system: AspC1 cells; test: Cell viability MTT assay 48 h; assay type: cell-based; settings: Homo sapiens, MTT 48 h, read-out: Activity EC50 ± SEM, AspC1
Experimental: (§1) Cell viability was assessed using a MTT assay at 48 h. On day 1, 25,000 cells/well were seeded into 96-well plates in 100 µl culture medium. On day 2, drugs at concentrations ranging from 1 µM to 100 µM were added. In all experiments the drug-solvents (EtOH, DMSO) were added as controls to evaluate possible solvent cyto-toxicities. After the established incubation time with drugs (48 h), MTT (0.5 mg/ml) was added to each well, and after 3–4 h incubation at 37 °C, the supernatants were removed. The formazan crystals formed were solubilized using 100 µl DMSO/EtOH (1:1) after which the absorbance values at 570 and 630 nm were determined using a microplate reader Victor 3 from PerkinElmer Life Sciences.

[3] = system: BxPC3 cells; test: Cell viability MTT assay 48 h; assay type: cell-based; settings: Homo sapiens, BXPC-3; MTT 48 h; read-out: Activity EC50 ± SEM, BxPC3
Experimental: as §1

[4] = system: HPDE cells; test: Cell viability MTT assay 48 h; assay type: cell-based; settings: Homo sapiens, MTT 48 h, read-out: Activity EC50 ± SEM, HPDE (normal cells)
Experimental: as §1

[5] = system: KP02 cells; test: Cell viability MTT assay 48 h; assay type: cell-based; settings: Mus musculus; MTT 48 h; read-out: Activity EC50 ± SEM, KP02
Experimental: as §1

[6] = system: MiaPaCa2 cells; test: Cell viability MTT assay 48 h; assay type: cell-based; settings: Homo sapiens, MIA PaCa-2; MTT 48 h; read-out: Activity EC50 ± SEM, MiaPaCa2
Experimental: as §1

[7] = system: PANC-1 cells; test: Cell viability MTT assay 48 h; assay type: cell-based; settings: Homo sapiens
Experimental: as §1

[8] = system: PANC02 cells; test: Cell viability MTT assay 48 h; assay type: cell-based, murine; settings: Mus musculus, MTT 48 h, read-out: Activity EC50 ± SEM, PANC02
Experimental: as §1

[9] = system: human (MiaPaCa2, PANC-1, AsPC1, BxPC3) and murine (KP02, PANC02) pancreatic cancer cells; test: Cell viability MTT assay 48 h, panel of pancreatic cancer cell lines; assay type: cell-based; settings: range over six pancreatic cancer cell lines; read-out: EC50 cytotoxic activity in all the cell lines studied
Experimental: as §1

[10] = system: caspase 3; test: Caspase 3 activity assay in pancreatic cancer cells; assay type: cell-based, human and murine; settings: 2 h
Experimental: (§2) Caspase 3, caspase 7 and caspase 9 activation was measured using a Caspase 3/7 Fluorescence Assay kit (Cayman Chemical, Ann Arbor, MI, USA) and a Caspase 9 fluorometric assay kit (Enzo Life Science, Roma, Italy). The results are expressed as nmol of the hydrolyzed substrate of each caspase/mg cellular proteins, according to a previously set titration curve.

[11] = system: caspase 9; test: Caspase 9 activity assay in pancreatic cancer cells; assay type: cell-based, human and murine; settings: 2 h
Experimental: as §2

[12] = system: MiaPaCa2 xenografts; test: In vivo xenograft assay, MiaPaCa2; set-up: species or system mice; settings: FA4 750 and 1500 nmol i.p. daily, 15 days
Experimental: 2 × 10^5 PANC-1 or Mia-PaCa2 cells were inoculated subcutaneously in the right flank of 6-week old C57BL/6 female nude mice (Charles River Laboratories Italia, Calco), housed (5 per cage) under a 12 h light/dark cycle, with food and drinking water provided ad libitum. Tumor growth was measured daily by caliper, according to the equation (LxW^2)/2, where L = tumor length and W = tumor width. When tumors reached a volume of 100 mm^3, the mice (n = 8/group) were randomized in the following groups and treated daily for 15 days or 30 days intraperitoneally as reported: (1) Vehicle group (100 µl saline solution), (2) FA4^low group (750 nmol FA4 in 100 µl saline solution), (3) FA4^high group (1500 nmol FA4 in 100 µl saline solution) and (4) Gemcitabine group (20 mg/kg gemcitabine, twice a week). Tumor volumes and animal weights were monitored daily. Animals were euthanized at day 18 or 36 after randomization with zolazepam (0.2 ml/kg) and xylazine (16 mg/kg). Next, tumors were excised and paraffin-embedded. […] Quantification of the immunohistochemical analyses was performed using ImageJ software (https://imagej.nih.gov/). The staining intensities were expressed as arbitrary units and considered 1 in the vehicle group.

[13] = Systemic toxicity and hematochemical parameters of treated PANC-1 tumor-bearing mice; settings: PANC-1 tumor-bearing mice, 30 days treatment
Experimental: 2 × 10^5 PANC-1 or Mia-PaCa2 cells were inoculated subcutaneously in the right flank of 6-week old C57BL/6 female nude mice (Charles River Laboratories Italia, Calco), housed (5 per cage) under a 12 h light/dark cycle, with food and drinking water provided ad libitum. Tumor growth was measured daily by caliper, according to the equation (LxW^2)/2, where L = tumor length and W = tumor width. […] Tumor volumes and animal weights were monitored daily. Animals were euthanized at day 18 or 36 after randomization with zolazepam (0.2 ml/kg) and xylazine (16 mg/kg). […] Red blood cell (RBC) count, hemoglobin (Hb), white blood cell (WBC) count, platelet (PLT) count, lactate dehydrogenase (LDH), aspartate aminotransferase (AST), alanine aminotransferase (ALT), alkaline phosphatase (AP), creatinine and creatine phosphokinase (CPK) were measured in blood samples collected immediately after euthanasia, using commercially available kits from Beckman Coulter Inc (Beckman Coulter, Miami, FL, USA).
Blood was collected immediately after euthanasia and analyzed for red blood cells (RBC) count, hemoglobin (Hb), white blood cells (WBC) count, platelets (PLT) count, lactate dehydrogenase (LDH), aspartate aminotransferase (AST), alanine aminotransferase (ALT), alkaline phosphatase (AP), creatinine, creatine phosphokinase (CPK). Data are presented as means ± SD.

T1 sequence (Q5BJF2 whole entry): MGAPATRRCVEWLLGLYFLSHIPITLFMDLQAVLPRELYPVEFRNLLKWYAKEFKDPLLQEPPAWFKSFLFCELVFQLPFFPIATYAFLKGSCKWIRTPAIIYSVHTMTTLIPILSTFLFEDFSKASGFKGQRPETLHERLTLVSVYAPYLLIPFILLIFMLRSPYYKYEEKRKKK

**Q.** Which results are given for `CN(C)C(=S)N/N=C1\C(=O)N(CCCCN2CCC3(CC2)OCc2ccccc23)c2ccccc21` [FA4, (Z)-2-(1-(4-(3 H-spiro[isobenzofuran-1,4’-piperidine]-1’-yl)butyl)-2-oxoindolin-3-ylidene)-N,N-dimethylhydrazinecarbothioamide]?
**A.** IC50 ([1]; Flow Cytometry, IC50 ± SEM, Sigma-2, AspC1, AspC1 cells, displacement of NO1): 10.6 ± 2.2 nM; IC50 ([1]; Flow Cytometry, IC50 ± SEM, Sigma-2, MiaPaCa2, MiaPaCa2 cells, displacement of NO1): 9.13 ± 1.1 nM; IC50 ([1]; Flow Cytometry, IC50 ± SEM, Sigma-2, PANC-1, PANC-1 cells, displacement of NO1): 11.4 ± 2.3 nM; IC50 ([1]; IC50 at sigma-2 receptors by flow cytometry, across MiaPaCa2, PANC-1, Aspc1 and (murine) KP02 cells): 9.13 to 11.6 nM and ~10 nM; EC50 [2]: 1390 ± 300 nM; EC50 [3]: 1360 ± 200 nM; EC50 [4]: 6110 ± 1100 nM; EC50 [5]: 880 ± 100 nM; EC50 [6]: 1980 ± 400 nM; EC50 ([7]; MTT 48 h, read-out: Activity EC50 ± SEM, PANC-1): 3010 ± 800 nM; IC50 ([7]; read-out: IC50 in PANC1 cells (discussion)): 3010 nM; EC50 [8]: 1940 ± 500 nM; EC50 [9]: 880 to 3010 nM; caspase 3 activation ([10]; 50 µM, MiaPaCa2, PANC-1, AspC1, KP02, PANC02 cells): activated caspase 3 in all the cell lines investigated; also recorded: most potent inducer of caspase 3 in all cell lines tested; induction of caspases 3, 7, 9 at IC50 concentration ([10]; concentration corresponding to IC50 in each cell line): significant inducer of caspases in all the cell lines analyzed, except for MiaPaCa2; activation of caspase 9 and caspase 3 with mitoquinol ([11]; 50 µM FA4 plus 0.4 µM mitoquinol): did not find any activation of caspase 9 and caspase 3; caspase 9 activation ([11]; 50 µM): observed in all the cells in which FA4 increased mitochondrial ROS and depolarization; tumor growth [12]: ineffective at both dosages; treatment-related deaths, weight loss, abnormalities in behavior [13]: No treatment-related deaths, weight loss or abnormalities in mouse behavior were observed
